For 17 compounds, MIC and Kd results are on record in PMC9430567, “A Small-Molecule Inhibitor of the Anthranilyl-CoA Synthetase PqsA for the Treatment of Multidrug-Resistant Pseudomonas aeruginosa” (Microbiology Spectrum, 2022).

In one assay the test system is T1, MDR P. aeruginosa C218.
T1 construct: C218
Put plainly: microbe, parasite or virus in culture. The settings on record: Pseudomonas aeruginosa. Further details: species or system Pseudomonas aeruginosa C218; CLSI broth micro-dilution MIC, complete inhibition of visible growth. The protocol:
MIC determination using the standard micro-dilution method was performed according to the Clinical and Laboratory Standards Institute ([29]). […] Experiments were performed in triplicate.

The next assay deals with T2, PqsE (Pseudomonas aeruginosa, UniProt P20581).
T2 construct: His6-tagged PqsE (pET30a-His6-pqsE), expressed in E. coli BL21 Star (DE3)
The experiment in a line: biolayer interferometry (Octet K2). It is filed as binding. (In BLI a coated tip is dipped into the sample, and binding shifts an interference pattern.)

Another assay has as its target T3, LasR (Pseudomonas aeruginosa, UniProt P25084).
T3 construct: His6-tagged LasR (pET30a-His6-LasR), expressed in E. coli BL21 Star (DE3)
Put plainly: biolayer interferometry (Octet K2). The assay is classed as binding.

A further assay concerns the target T4, PqsA G279A (Pseudomonas aeruginosa, UniProt Q9I4X3, G279A).
T4 construct: His6-tagged PqsA G279A (pET30a-His6-pqsA^G279A), expressed in E. coli BL21 Star (DE3)
T4 sequence (Q9I4X3 1-517 G279A): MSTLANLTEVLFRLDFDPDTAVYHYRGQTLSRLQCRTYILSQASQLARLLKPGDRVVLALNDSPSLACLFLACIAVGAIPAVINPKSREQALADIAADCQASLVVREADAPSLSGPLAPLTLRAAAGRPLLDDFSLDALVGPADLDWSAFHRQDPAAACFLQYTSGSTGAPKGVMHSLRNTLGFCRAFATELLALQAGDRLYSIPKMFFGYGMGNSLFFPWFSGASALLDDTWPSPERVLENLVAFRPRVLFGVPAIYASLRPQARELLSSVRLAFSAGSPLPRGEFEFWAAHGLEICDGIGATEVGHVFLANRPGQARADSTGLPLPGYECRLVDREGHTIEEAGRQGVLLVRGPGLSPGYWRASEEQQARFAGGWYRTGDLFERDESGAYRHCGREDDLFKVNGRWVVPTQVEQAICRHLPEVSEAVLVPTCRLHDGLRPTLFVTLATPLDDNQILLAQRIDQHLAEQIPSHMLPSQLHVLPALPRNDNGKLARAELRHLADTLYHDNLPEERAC
The experiment in a line: biolayer interferometry (Octet K2). It is filed as binding.

Assay [1] addresses T5, anthranilyl-CoA synthetase PqsA (Pseudomonas aeruginosa, UniProt Q9I4X3).
T5 construct: His6-tagged PqsA (pET30a-His6-pqsA), expressed in E. coli BL21 Star (DE3)
The experiment in a line: biolayer interferometry (Octet K2). It is filed as binding.

The target of the next assay is T6, PqsA D299A (Pseudomonas aeruginosa, UniProt Q9I4X3, D299A).
T6 construct: His6-tagged PqsA D299A (pET30a-His6-pqsA^D299A), expressed in E. coli BL21 Star (DE3)
T6 sequence (Q9I4X3 1-517 D299A): T4 sequence (Q9I4X3 1-517 G279A)
Put plainly: biolayer interferometry (Octet K2). It is filed as binding.

The target of another assay is T7, LasI (Pseudomonas aeruginosa, UniProt P33883).
T7 construct: His6-tagged LasI (pET30a-His6-lasI)
Put plainly: biochemical. Further details: biolayer interferometry (BLI) binding to purified His6-tagged protein. The protocol: (§1) [compound left out]. Cell debris was removed by centrifugation. […] The purified protein was assessed by SDS-PAGE.

For another assay, the target named is T8, PqsD (Pseudomonas aeruginosa, UniProt P20582).
T8 construct: His6-tagged PqsD (pET30a-His6-pqsD)
The experiment in a line: biochemical. Further details: biolayer interferometry (BLI) binding to purified His6-tagged protein. The protocol:
as §1

In the next assay the target is T9, PqsR (Pseudomonas aeruginosa, UniProt Q9I4X0).
T9 construct: gene mvfR; His6-tagged PqsR (pET30a-His6-pqsR)
The experiment in a line: biochemical. Further details: biolayer interferometry (BLI) binding to purified His6-tagged protein. Here is the method: as §1

A further assay addresses T10, RhlI (Pseudomonas aeruginosa, UniProt P54291).
T10 construct: His6-tagged RhlI (pET30a-His6-rhlI)
Put plainly: biochemical. Also noted: biolayer interferometry (BLI) binding to purified His6-tagged protein. The protocol: as §1

For the next assay, the target named is RhlR (Pseudomonas aeruginosa, UniProt P54292). The experiment in a line: biochemical.

Values after ≈ are worked out from the molar mass of the structure shown.

Compound `NCC[C@H](O)C(=O)N[C@@H]1C[C@H](N)[C@@H](O[C@H]2O[C@H](CN)[C@@H](O)[C@H](O)[C@H]2O)[C@H](O)[C@H]1O[C@H]1O[C@H](CO)[C@@H](O)[C@H](N)[C@H]1O` [Amikacin] had an MIC against MDR P. aeruginosa C218 of 7.8 µg/mL (≈ 13.3 µM).

Regarding `CC1(C)S[C@@H]2[C@H](NC(=O)[C@H](NC(=O)N3CCNC3=O)c3ccccc3)C(=O)N2[C@H]1C(=O)O` [Azlocillin], the MIC in the assay on MDR P. aeruginosa C218 was determined as 4000 µg/mL (≈ 8670 µM).

Turning to `C[C@H]1[C@H](NC(=O)/C(=N\OC(C)(C)C(=O)O)c2csc(N)n2)C(=O)N1S(=O)(=O)O` [Aztreonam], the MIC against MDR P. aeruginosa C218 stood at 4000 µg/mL (≈ 9190 µM).

As for `CO/N=C(\C(=O)N[C@@H]1C(=O)N2C(C(=O)[O-])=C(C[N+]3(C)CCCC3)CS[C@H]12)c1csc(N)n1` [Cefepime], the MIC against MDR P. aeruginosa C218 is 4000 µg/mL (≈ 8320 µM).

In the assay on MDR P. aeruginosa C218, `CC(C)(O/N=C(\C(=O)N[C@@H]1C(=O)N2C(C(=O)[O-])=C(C[n+]3ccccc3)CS[C@H]12)c1csc(N)n1)C(=O)O` [Ceftazidime] returned an MIC of 500 µg/mL (≈ 915 µM).

In turn, `C[C@@H](O)[C@H]1C(=O)N2C(C(=O)O)=C(S[C@@H]3CN[C@H](CNS(N)(=O)=O)C3)[C@H](C)[C@H]12` [Doripenem] displayed an MIC against MDR P. aeruginosa C218 of 500 µg/mL (≈ 1190 µM).

In the assay with MDR P. aeruginosa C218, `COc1c(N2CCNC(C)C2)c(F)cc2c(=O)c(C(=O)O)cn(C3CC3)c12` (centres unmarked) [Gatifloxacin] yielded an MIC of 62.5 µg/mL (≈ 166 µM).

The compound `C[C@@H](O)[C@H]1C(=O)N2C(C(=O)O)=C(SCCNC=N)C[C@H]12` [Imipenem] gave an MIC against MDR P. aeruginosa C218 of 500 µg/mL (≈ 1670 µM).

In the case of `NC[C@H]1O[C@H](O[C@H]2[C@H](O)[C@@H](O[C@H]3O[C@H](CO)[C@@H](O)[C@H](N)[C@H]3O)[C@H](N)C[C@@H]2N)[C@H](O)[C@@H](O)[C@@H]1O` [Kanamycin], in the assay with MDR P. aeruginosa C218, the MIC was 310 µg/mL (≈ 640 µM).

Turning to `C[C@H]1COc2c(N3CCN(C)CC3)c(F)cc3c(=O)c(C(=O)O)cn1c23` [Levofloxacin], in the assay with MDR P. aeruginosa C218, the MIC was determined as 62.5 µg/mL (≈ 173 µM).

Compound `CCn1cc(C(=O)O)c(=O)c2cc(F)c(N3CCNC(C)C3)c(F)c21` (centres unmarked) [Lomefloxacin] yielded an MIC against MDR P. aeruginosa C218 of 125 µg/mL (≈ 356 µM).

On to `C[C@@H](O)[C@H]1C(=O)N2C(C(=O)O)=C(S[C@@H]3CN[C@H](C(=O)N(C)C)C3)[C@H](C)[C@H]12` [Meropenem], for which the MIC against MDR P. aeruginosa C218 is 500 µg/mL (≈ 1300 µM).

In the assay with MDR P. aeruginosa C218, `CCn1cc(C(=O)O)c(=O)c2cc(F)c(N3CCNCC3)cc21` [Norfloxacin] registered an MIC of 4000 µg/mL (≈ 12500 µM).

As to `CC1COc2c(N3CCN(C)CC3)c(F)cc3c(=O)c(C(=O)O)cn1c23` (centres unmarked) [Ofloxacin], the MIC in the assay with MDR P. aeruginosa C218 amounted to 500 µg/mL (≈ 1380 µM).

`CCN1CCN(C(=O)N[C@@H](C(=O)N[C@@H]2C(=O)N3[C@@H]2SC(C)(C)[C@@H]3C(=O)O)c2ccccc2)C(=O)C1=O` [Piperacillin] came in with an MIC against MDR P. aeruginosa C218 of 4000 µg/mL (≈ 7730 µM).

On to `NC[C@H]1O[C@H](O[C@H]2[C@H](O)[C@@H](O[C@H]3O[C@H](CO)[C@@H](O)[C@H](N)[C@H]3O)[C@H](N)C[C@@H]2N)[C@H](N)C[C@@H]1O` [Tobramycin], for which the MIC with MDR P. aeruginosa C218 was found to be 3.9 µg/mL (≈ 8.34 µM).

The term Kd denotes the concentration at which binding is half-saturated. Read a low Kd as higher affinity. Consider `c1ccc2c(c1)[nH]c1cnccc12` [norharmane], for which the Kd is 500 µM at PqsE; 2290 µM on LasR; 1100 µM on PqsA G279A; 2.54 µM in assay [1]; 1650 µM at PqsA D299A; more than 1000 µM on LasI. For the same compound, the Kd at PqsD, on PqsR, on RhlI and on RhlR was more than 1000 µM in each case.
